Reference: ChEMBL document CHEMBL1201862, “PubChem BioAssay data set” (2004)
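Protocol summary: plate cells (96-well), add compound at 5 concentrations, incubate 48 h, interpolate endpoints linearly. The concentration for 50% growth inhibition is given as GI50.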 Calls of active or inactive are those of the source. Cut-off read from the data, not from the text of the source: active = GI50 up to about 1.1 µM and inactive = higher.

How the values were obtained:
Experiment in all cases: growth of human tumour cells (NCI), 48 h
786-0 = system: 786-0
A498 = system: A498
A549 = system: A549
ACHN = system: ACHN
BT-549 = system: BT-549
CAKI-1 = system: CAKI-1
COLO 205 = system: COLO 205
DU-145 = system: DU-145
EKVX = system: EKVX
HCC 2998 = system: HCC 2998
HCT-116 = system: HCT-116
HCT-15 = system: HCT-15
HL-60 = system: HL-60
HOP-62 = system: HOP-62
HOP-92 = system: HOP-92
HT-29 = system: HT-29
Hs-578T = system: Hs-578T
IGROV-1 = system: IGROV-1
K562 = system: K562
KM12 = system: KM12
LOX IMVI = system: LOX IMVI
M14 = system: M14
MCF7 = system: MCF7
MDA-MB-231 = system: MDA-MB-231
MDA-MB-435 = system: MDA-MB-435
MDA-N = system: MDA-N
MOLT-4 = system: MOLT-4
NCI-H226 = system: NCI-H226
NCI-H460 = system: NCI-H460
NCI-H522 = system: NCI-H522
NCI/ADR-RES = system: NCI/ADR-RES
OVCAR-3 = system: OVCAR-3
OVCAR-4 = system: OVCAR-4
OVCAR-5 = system: OVCAR-5
OVCAR-8 = system: OVCAR-8
PC-3 = system: PC-3
RPMI-8226 = system: RPMI-8226
SF-268 = system: SF-268
SF-295 = system: SF-295
SF-539 = system: SF-539
SK-MEL-28 = system: SK-MEL-28
SK-MEL-2 = system: SK-MEL-2
SK-MEL-5 = system: SK-MEL-5
SK-OV-3 = system: SK-OV-3
SN12C = system: SN12C
SNB-19 = system: SNB-19
SNB-75 = system: SNB-75
SR = system: SR
SW-620 = system: SW-620
T47D = system: T47D
TK-10 = system: TK-10
U-251 = system: U-251
UACC-257 = system: UACC-257
UACC-62 = system: UACC-62
UO-31 = system: UO-31
CCRF-CEM = system: CCRF-CEM
Malme-3M = system: Malme-3M
NCI-H23 = system: NCI-H23
RXF 393 = system: RXF 393

Measured: GI50

CC1(C)OCC(/C=C\C(O)CC2(C)OCCO2)CO1 (stereo unspecified)
> 100 µM: HCT-15
inactive: 786-0 > 100 µM | A498 > 100 µM | A549 > 100 µM | ACHN > 100 µM | BT-549 > 100 µM | CAKI-1 > 100 µM | COLO 205 > 100 µM | DU-145 > 100 µM | EKVX > 100 µM | HCC 2998 > 100 µM | HCT-116 > 100 µM | HL-60 > 100 µM | HOP-62 > 100 µM | HOP-92 > 100 µM | HT-29 > 100 µM | Hs-578T > 100 µM | IGROV-1 > 100 µM | K562 > 100 µM | KM12 > 100 µM | LOX IMVI > 100 µM | M14 > 100 µM | MCF7 > 100 µM | MDA-MB-231 > 100 µM | MDA-MB-435 > 100 µM | MDA-N > 100 µM | MOLT-4 > 100 µM | NCI-H226 > 100 µM | NCI-H460 > 100 µM | NCI-H522 > 100 µM | NCI/ADR-RES > 100 µM | OVCAR-3 > 100 µM | OVCAR-4 > 100 µM | OVCAR-5 > 100 µM | OVCAR-8 > 100 µM | PC-3 > 100 µM | RPMI-8226 > 100 µM | SF-268 > 100 µM | SF-295 > 100 µM | SF-539 > 100 µM | SK-MEL-28 > 100 µM | SK-MEL-2 > 100 µM | SK-MEL-5 > 100 µM | SK-OV-3 > 100 µM | SN12C > 100 µM | SNB-19 > 100 µM | SNB-75 > 100 µM | SR > 100 µM | SW-620 > 100 µM | T47D > 100 µM | TK-10 > 100 µM | U-251 > 100 µM | UACC-257 > 100 µM | UACC-62 > 100 µM | UO-31 > 100 µM

CC1=NN2C(=O)CC(=O)N=C2S1
inactive: 786-0 > 100 µM | A549 > 100 µM | ACHN > 100 µM | BT-549 > 100 µM | CAKI-1 > 100 µM | CCRF-CEM > 100 µM | COLO 205 > 100 µM | DU-145 > 100 µM | EKVX > 100 µM | HCT-116 > 100 µM | HL-60 > 100 µM | HOP-62 > 100 µM | HOP-92 > 100 µM | HT-29 > 100 µM | Hs-578T > 100 µM | IGROV-1 > 100 µM | K562 > 100 µM | KM12 > 100 µM | LOX IMVI > 100 µM | M14 > 100 µM | MCF7 > 100 µM | MDA-MB-231 > 100 µM | MDA-MB-435 > 100 µM | MDA-N > 100 µM | MOLT-4 > 100 µM | Malme-3M > 100 µM | NCI-H226 > 100 µM | NCI-H23 > 100 µM | NCI-H460 > 100 µM | NCI-H522 > 100 µM | NCI/ADR-RES > 100 µM | OVCAR-3 > 100 µM | OVCAR-4 > 100 µM | OVCAR-5 > 100 µM | OVCAR-8 > 100 µM | PC-3 > 100 µM | RPMI-8226 > 100 µM | RXF 393 > 100 µM | SF-268 > 100 µM | SF-295 > 100 µM | SF-539 > 100 µM | SK-MEL-28 > 100 µM | SK-MEL-2 > 100 µM | SK-MEL-5 > 100 µM | SK-OV-3 > 100 µM | SN12C > 100 µM | SNB-19 > 100 µM | SNB-75 > 100 µM | SR > 100 µM | SW-620 > 100 µM | T47D > 100 µM | TK-10 > 100 µM | U-251 > 100 µM | UACC-257 > 100 µM | UACC-62 > 100 µM
> 100 µM: HCT-15
